From patent US7405205B2, “Antitumor antisense sequences directed against R1 and R2 components of ribonucleotide reductase” (Lorus Therapeutics Inc., priority 1996, dated 2008)

What was measured:
[1] = tested on: SC2 hydroxyurea resistant mouse L cells; experiment: Drug sensitivity by relative colony forming efficiency; assay type: cell-based
[2] = tested on: wild type (W.T.) mouse L cells; experiment: as above; assay type: cell-based
[3] = tested on: RP6/SH cells (10T½, H-ras and mutant p53); experiment: as above; assay type: cell-based, mouse
[4] = tested on: B3/SH cells (BALB/c 3T3, empty vector); experiment: as above; assay type: cell-based, mouse
[5] = tested on: N/R2-4 cells (NIH-3T3, R2 expression vector); experiment: as above; assay type: cell-based, mouse
[6] = tested on: N/R2+ASR2 cells (NIH-3T3, R2 and R2 antisense vectors); experiment: as above; assay type: cell-based, mouse
[7] = tested on: H2 (H-2) hydroxyurea resistant mouse L cells; experiment: as above; assay type: cell-based
[8] = tested on: RP3/ASR2 cells (RP3 with R2 antisense vector); experiment: as above; assay type: cell-based, mouse
[9] = tested on: B3/mR2 cells (BALB/c 3T3, R2 expression vector); experiment: as above; assay type: cell-based, mouse
[10] = tested on: LHF hydroxyurea resistant mouse L cells; experiment: as above; assay type: cell-based
[11] = tested on: HeLa S3 cells; experiment: Sensitisation to PALA and MTX by antisense, relative colony forming efficiency; assay type: cell-based, human; settings: PALA 20 μM, without AS-II-2229B-20
Protocol: (§1) Drug Selections: Cells ranging in numbers from 500 to 1-2×10^5 were added to 100 mm tissue culture plates in growth medium containing 10% dialyzed fetal bovine serum, and in the absence or presence of drug [Huang et al., 1995a; Choy et al., 1988]. The culture medium was replaced with fresh medium every week for two to three weeks. Surviving cells were visualized by methylene blue staining, and colonies of about 50 cells or more were scored [Huang et al., 1995a]. The relative colony forming efficiency was defined as the ability to produce colonies in the presence of a drug divided by that ability in the absence of drug.
(§2) Colony forming efficiency was determined as previously reported [Huang and Wright, 1994]. The cells were cultured for 24 hours at 37° C. in growth medium with 10% fetal bovine serum. The cells were washed in 5 ml phosphate buffered saline, pH 7.2, once prior to lipofectin+/−oligonucleotide treatment.
(§3) The oligonucleotides being tested were added to cell cultures in the presence of 2.5 μg of DOTMA/DOPE (Lipofectin; Life Technologies, Inc.) for four hours. The oligonucleotide was tested at 0.2 μM unless otherwise indicated. Controls were the cultures treated with lipofectin but without the oligonucleotide. After 4 hours the medium containing the oligonucleotide was removed and washed with 5 ml of growth medium. The cells were then cultured in growth medium containing 10% fetal bovine serum for seven to ten days. Surviving cells were visualized by methylene blue staining, and colonies were scored. In some experiments cell aliquotes were removed from the culture and viability was determined using the trypan blue exclusion test [Phillips, 1973]. Results were analyzed as percent of surviving cells compared to control cells.
(§4) Based on Example 2, treatment of human tumor cells with very low concentrations of short antisense sequences was tested to determine if these constructs could sensitize the tumor cells to inhibitory effects of other chemotherapeutic drugs. […] These observations indicate that antisense compounds targeting the R2 message can act synergistically with well known chemotherapeutic agents.

[12] = tested on: HeLa 1 mM cells; experiment: as above; assay type: cell-based, human; settings: without AS-II-2229B-20
Protocol: as §1, §2, §3, §4

[13] = tested on: B3/R2c2 cells (clone of B3/mR2); experiment: Drug sensitivity by relative colony forming efficiency; assay type: cell-based, mouse
[14] = tested on: RP3/SH cells (10T½, H-ras and mutant p53); experiment: as above; assay type: cell-based, mouse
[15] = tested on: N/SH cells (NIH-3T3, empty vector); experiment: as above; assay type: cell-based, mouse
[16] = tested on: RP6/ASR2 cells (RP6 with R2 antisense vector); experiment: as above; assay type: cell-based, mouse
[17] = tested on: H4 (H-4) hydroxyurea resistant mouse L cells; experiment: as above; assay type: cell-based

O=C(O)C[C@H](NC(=O)CP(=O)(O)O)C(=O)O [PALA, N-(phosphonacetyl)-L-aspartate]
Relative Colony Forming Efficiencies ([1]; PALA 20 μM): 850.1 ± 325.2 × 10^4 | Relative Colony Forming Efficiencies ([1]; PALA 30 μM): 187.6 ± 46.4 × 10^4 | Relative Colony Forming Efficiencies ([1]; PALA 40 μM): 37.5 ± 8.7 × 10^4 | Relative Colony Forming Efficiencies ([1]; PALA 50 μM): 47.5 ± 35.8 × 10^4 | Relative Colony Forming Efficiencies ([1]; PALA 60 μM): 17.6 ± 1.2 × 10^4 | Relative Colony Forming Efficiencies ([2]; PALA 20 μM): 172.3 ± 126.3 × 10^4 | Relative Colony Forming Efficiencies ([2]; PALA 30 μM): 50.3 ± 20.5 × 10^4 | Relative Colony Forming Efficiencies ([2]; PALA 40 μM): 15.0 ± 7.0 × 10^4 | Relative Colony Forming Efficiencies ([2]; PALA 50 μM): 3.6 ± 1.1 × 10^4 | Relative Colony Forming Efficiencies ([2]; PALA 60 μM): 1.3 ± 0.4 × 10^4 | Relative Colony Forming Efficiencies ([3]; PALA 10 μM): 4619 ± 648 × 10^4 | Relative Colony Forming Efficiencies ([3]; PALA 20 μM): 1220 ± 255 × 10^4 | Relative Colony Forming Efficiencies ([3]; PALA 30 μM): 450 ± 129 × 10^4 | Relative Colony Forming Efficiencies ([3]; PALA 40 μM): 271 ± 68 × 10^4 | Relative Colony Forming Efficiencies ([3]; PALA 50 μM): 109 ± 23 × 10^4 | Relative Colony Forming Efficiencies ([3]; PALA 60 μM): 55.5 ± 13 × 10^4 | Relative Colony Forming Efficiencies ([4]; PALA 10 μM): 17.9 ± 11.0 × 10^4 | Relative Colony Forming Efficiencies ([4]; PALA 20 μM): 0.39 ± 0.18 × 10^4 | Relative Colony Forming Efficiencies ([4]; PALA 40 μM): 0.35 ± 0.01 × 10^4 | Relative Colony Forming Efficiencies ([4]; PALA 50 μM): 0.24 ± 0.14 × 10^4 | Relative Colony Forming Efficiencies ([4]; PALA 60 μM): 0.12 ± 0.05 × 10^4 | Relative Colony Forming Efficiencies ([4]; PALA 80 μM): 0.17 ± 0.08 × 10^4 | Relative Colony Forming Efficiencies ([5]; PALA 10 μM): 6.22 ± 3.3 × 10^4 | Relative Colony Forming Efficiencies ([5]; PALA 15 μM): 10.0 ± 5.5 × 10^4 | Relative Colony Forming Efficiencies ([5]; PALA 20 μM): 1.71 ± 1.2 × 10^4 | Relative Colony Forming Efficiencies ([5]; PALA 25 μM): 0.8 ± 0.7 × 10^4 | Relative Colony Forming Efficiencies ([5]; PALA 30 μM): 1.03 ± 0.07 × 10^4 | Relative Colony Forming Efficiencies ([5]; PALA 40 μM): 0.14 ± 0.08 × 10^4 | Relative Colony Forming Efficiencies ([6]; PALA 10 μM): 1.81 ± 0.8 × 10^4 | Relative Colony Forming Efficiencies ([6]; PALA 15 μM): 0.58 ± 0.3 × 10^4 | Relative Colony Forming Efficiencies ([6]; PALA 20 μM): 0.04 ± 0.04 × 10^4 | Relative Colony Forming Efficiencies ([6]; PALA 25 μM): 0.04 ± 0.04 × 10^4 | Relative Colony Forming Efficiencies ([6]; PALA 30 μM): 0.12 ± 0.12 × 10^4 | Relative Colony Forming Efficiencies ([6]; PALA 40 μM): 0.04 ± 0.04 × 10^4 | Relative Colony Forming Efficiencies ([7]; PALA 20 μM): 406.7 ± 202.2 × 10^4 | Relative Colony Forming Efficiencies ([7]; PALA 30 μM): 39.4 ± 16.4 × 10^4 | Relative Colony Forming Efficiencies ([7]; PALA 40 μM): 23.3 ± 10.4 × 10^4 | Relative Colony Forming Efficiencies ([7]; PALA 50 μM): 7.9 ± 1.7 × 10^4 | Relative Colony Forming Efficiencies ([7]; PALA 60 μM): 3.6 ± 0.6 × 10^4 | Relative Colony Forming Efficiencies ([8]; PALA 10 μM): 1183 ± 384 × 10^4 | Relative Colony Forming Efficiencies ([8]; PALA 20 μM): 86.1 ± 32.9 × 10^4 | Relative Colony Forming Efficiencies ([8]; PALA 30 μM): 19.5 ± 4.7 × 10^4 | Relative Colony Forming Efficiencies ([8]; PALA 40 μM): 4.7 ± 0.6 × 10^4 | Relative Colony Forming Efficiencies ([8]; PALA 50 μM): 2.1 ± 0.8 × 10^4 | Relative Colony Forming Efficiencies ([8]; PALA 60 μM): 0.3 ± 0.2 × 10^4 | Relative Colony Forming Efficiencies ([9]; PALA 10 μM): 965.0 ± 529.7 × 10^4 | Relative Colony Forming Efficiencies ([9]; PALA 20 μM): 120.1 ± 28.4 × 10^4 | Relative Colony Forming Efficiencies ([9]; PALA 40 μM): 25.0 ± 4.6 × 10^4 | Relative Colony Forming Efficiencies ([9]; PALA 50 μM): 27.6 ± 8.9 × 10^4 | Relative Colony Forming Efficiencies ([9]; PALA 60 μM): 25.0 ± 6.4 × 10^4 | Relative Colony Forming Efficiencies ([9]; PALA 80 μM): 27.1 ± 6.75 × 10^4 | Relative Colony Forming Efficiencies ([10]; PALA 20 μM): 233.3 ± 3.6 × 10^4 | Relative Colony Forming Efficiencies ([10]; PALA 30 μM): 78.8 ± 7.9 × 10^4 | Relative Colony Forming Efficiencies ([10]; PALA 40 μM): 46.5 ± 9.9 × 10^4 | Relative Colony Forming Efficiencies ([10]; PALA 50 μM): 25.0 ± 6.8 × 10^4 | Relative Colony Forming Efficiencies ([10]; PALA 60 μM): 10.7 ± 3.0 × 10^4 | Relative colony Forming Efficiency [11]: 350 ± 50 | Relative colony Forming Efficiency ([12]; PALA 20 μM): 377 ± 21 | Relative colony Forming Efficiency ([12]; PALA 30 μM): 311 ± 9.5 | Relative Colony Forming Efficiencies ([13]; PALA 10 μM): 1230.0 ± 97.0 × 10^4 | Relative Colony Forming Efficiencies ([13]; PALA 20 μM): 55.1 ± 15.6 × 10^4 | Relative Colony Forming Efficiencies ([13]; PALA 40 μM): 20.2 ± 6.8 × 10^4 | Relative Colony Forming Efficiencies ([13]; PALA 50 μM): 15.9 ± 4.0 × 10^4 | Relative Colony Forming Efficiencies ([13]; PALA 60 μM): 18.7 ± 5.3 × 10^4 | Relative Colony Forming Efficiencies ([13]; PALA 80 μM): 20.0 ± 4.9 × 10^4 | Relative Colony Forming Efficiencies ([14]; PALA 10 μM): 2569 ± 338 × 10^4 | Relative Colony Forming Efficiencies ([14]; PALA 20 μM): 123.4 ± 19.3 × 10^4 | Relative Colony Forming Efficiencies ([14]; PALA 30 μM): 45.2 ± 7.8 × 10^4 | Relative Colony Forming Efficiencies ([14]; PALA 40 μM): 15.0 ± 4.9 × 10^4 | Relative Colony Forming Efficiencies ([14]; PALA 50 μM): 9.3 ± 3.6 × 10^4 | Relative Colony Forming Efficiencies ([14]; PALA 60 μM): 3.9 ± 1.6 × 10^4 | Relative Colony Forming Efficiencies ([15]; PALA 10 μM): 5.28 ± 1.5 × 10^4 | Relative Colony Forming Efficiencies ([15]; PALA 15 μM): 5.83 ± 2.7 × 10^4 | Relative Colony Forming Efficiencies ([15]; PALA 20 μM): 0.30 ± 0.1 × 10^4 | Relative Colony Forming Efficiencies ([15]; PALA 25 μM): 0.53 ± 0.3 × 10^4 | Relative Colony Forming Efficiencies ([15]; PALA 30 μM): 0.48 ± 0.08 × 10^4 | Relative Colony Forming Efficiencies ([15]; PALA 40 μM): 0.27 ± 0.2 × 10^4 | Relative Colony Forming Efficiencies ([16]; PALA 10 μM): 2083 ± 960 × 10^4 | Relative Colony Forming Efficiencies ([16]; PALA 20 μM): 368 ± 154 × 10^4 | Relative Colony Forming Efficiencies ([16]; PALA 30 μM): 316 ± 171 × 10^4 | Relative Colony Forming Efficiencies ([16]; PALA 40 μM): 116 ± 54 × 10^4 | Relative Colony Forming Efficiencies ([16]; PALA 50 μM): 41.7 ± 23 × 10^4 | Relative Colony Forming Efficiencies ([16]; PALA 60 μM): 13.2 ± 6.3 × 10^4 | Relative Colony Forming Efficiencies ([17]; PALA 20 μM): 322.5 ± 36.4 × 10^4 | Relative Colony Forming Efficiencies ([17]; PALA 30 μM): 84.0 ± 30.0 × 10^4 | Relative Colony Forming Efficiencies ([17]; PALA 40 μM): 43.3 ± 9.6 × 10^4 | Relative Colony Forming Efficiencies ([17]; PALA 50 μM): 23.2 ± 0.5 × 10^4 | Relative Colony Forming Efficiencies ([17]; PALA 60 μM): 11.1 ± 1.4 × 10^4
